ChEMBL document CHEMBL1142585, “Two new cytotoxic linderazulenes from a deep-sea gorgonian of the genus Paramuricea” (J Nat Prod, 2005)
≈ marks a conversion by molar mass, not a printed value. Calls of active or inactive are those of the source. No cut-off for these calls is given here.

What was measured:
[1] = test system: Candida albicans; assay: Antifungal activity against Candida albicans at 50 ug/mL; format: functional, organism-based
[2] = test system: P388; assay: Cytotoxicity against mouse P388 cells by MTT assay; format: functional, cell-based
[3] = test system: PANC-1; assay: Cytotoxicity against human PANC-1 cells by MTT assay; format: functional, cell-based

Row | SMILES | Activity [1] | IC50 [2] [µg/mL] | IC50 [3] [µg/mL]
1 | Cc1cc2occ(C)c2cc2c(C=O)ccc1-2 | inactive | 15.6 (≈ 69.6 µM) | –
2 | COC(=O)c1ccc2c(C)cc3occ(C)c3cc1-2 | inactive | 2.7 (≈ 10.6 µM) | 18.7 (≈ 73.5 µM)
3 | Cc1cc2occ(C)c2cc2c(C)ccc1-2 [LINDERAZULENE] | inactive | 18.8 (≈ 89.4 µM) | –
